Key:
Type in all cases: physicochemical
[1] = Bulk density (poured density) of powder in a 100 cm^3 measuring cylinder; conditions: L-leucine samples
Description: The bulk density (or poured density) of a material of the present invention is determined by the following method:
2 g of the material is poured from weighing paper into a 100 cm^3 graduated glass measuring cylinder in an upright position. Transfer of the material from the paper into the cylinder is made as rapidly as flow permits. The volume occupied by the poured powder in the cylinder is measured to the nearest 0.5 ml (bulk volume) and the weight of the powder is determined.
The bulk density of the material is calculated as the weight of the powder divided by the bulk volume.
The bulk density and particle size diameter (as VMD) were determined for the spray-dried leucine. Bulk density and VMD were determined by the method indicated above.
The bulk density and particle size distribution were determined by the methods described in respect of Example 1 above, and are given in Table 3.

[2] = Particle size distribution by low angle laser light scattering (Mastersizer X); conditions: for VMD: volume median diameter, dispersant 0.05% lecithin in cyclohexane; for D(v,90): diameter below which 90% of particles by volume reside, unit not given
Description: The particle size distribution was determined by low angle laser light scattering (Mastersizer X, Malvern Instruments, Malvern, UK). To approximately 5 mg of the sample to be analysed 10 ml of dispersant was added (0.05% lecithin in cyclohexane). The sample suspension was sonicated for 30 seconds before analysis. The volume median diameter (VMD) and D(v,90) were determined. VMD is the diameter such that 50% of the particles by volume have a diameter less than the VMD. D(v,90) is the equivalent volume diameter at 90% cumulative volume. The bulk density and particle size diameter (as VMD) were determined for the spray-dried leucine. Bulk density and VMD were determined by the method indicated above.

[3] = Flow properties: poured density, tapped density and Carr's Index; conditions: for Poured Density: 250 cm^3 measuring cylinder; for Tapped Density: tapped to constant volume
Description: The flow properties of the L-leucine were determined by measuring the Carr's Index of the powder. Spray-dried L-leucine was added to a powdered protein (BSA-maltodextrin 50:50).
Carr's Index of a sample was determined by measuring the volume (Vpour) of weight (W) poured into a 250 cm^3 measuring cylinder and tapping the cylinder to obtain constant volume of the sample (Vtap). The poured density (bulk density) and the tap density are calculated as W/Vpour and W/Vtap respectively and Carr's Index is calculated from the tapped density and the poured density by the formula [formula]

[4] = Thickness of flakes (electron microscope observation); conditions: flakes prepared by the spray drying method
Source text: Observation of the thickness of the flakes may be made by studying electron microscope (SEM) images of the particles. For example, flakes may be mounted on an electron microscope stub with double sided tape and coated with gold prior to examination on an electron microscope. An alternative method for observing the dimensions of particles of the present invention is by sizing the particles on a microscope slide in a similar way to that described in British Pharmacopoeia 1973 (page 645, Ergotamine Aerosol Inhalation). In this case a small quantity of particles, for example 10 to 100 mg, are dropped onto a microscope slide and examined under a microscope to assess the particle size of the deposit.

[5] = listed as unprocessed L-leucine

Structure (SMILES)	Bulk Density ([1]; Example 2, Table 3) [gcm^−3]	VMD [2]	Bulk Density ([1]; Example 1, Table 1) [g cm^−3]	further results
CC(C)C[C@H](N)C(=O)O [milled, L-leucine, reference compound]	0.30	milled (VMD = 18 μm)	–	–
CC(C)C[C@H](N)C(=O)O [spray-dried C, L-leucine]	–	–	0.029	–
CC(C)C[C@H](N)C(=O)O [spray-dried D, L-leucine]	–	–	0.035	–
CC(C)C[C@H](N)C(=O)O [spray-dried L-leucine, L-leucine]	–	–	–	Poured Density [3]: 0.043 gcm^−3; Tapped Density [3]: 0.055 gcm^−3; thickness of flakes [4]: less than 100 nm
CC(C)C[C@H](N)C(=O)O [unprocessed, L-leucine, reference compound]	0.70	–	0.710	Poured Density [3, 5]: 0.710 gcm^−3; Tapped Density [3, 5]: 0.770 gcm^−3

Second part, led by results:

Bulk Density ([1]; Example 2, Table 3) [gcm^−3]	VMD [2]	Bulk Density ([1]; Example 1, Table 1) [g cm^−3]	Structure (SMILES)	further results
0.04	–	–	CC(C)C[C@H](N)C(=O)O [condensed, L-leucine]	–
–	4.2 μm	0.042	CC(C)C[C@H](N)C(=O)O [spray-dried A, L-leucine]	D(v,90) [2]: 10.6
–	–	0.035	CC(C)C[C@H](N)C(=O)O [spray-dried B, L-leucine]	–
–	3.9 μm	0.032	CC(C)C[C@H](N)C(=O)O [spray-dried E, L-leucine]	D(v,90) [2]: 11.9

From patent US6989155B1, “Powders” (Vectura Limited, priority 1998, dated 2006)
